Laboratory results published in ChEMBL document CHEMBL1142601, “Biphenyl glycosides from the fruit of Pyracantha fortuneana” (J Nat Prod, 2006).

These molecules were tested against T1, Tyrosinase (Homo sapiens, UniProt P14679) (assay: Inhibition of tyrosinase).
T1 sequence (P14679 whole entry): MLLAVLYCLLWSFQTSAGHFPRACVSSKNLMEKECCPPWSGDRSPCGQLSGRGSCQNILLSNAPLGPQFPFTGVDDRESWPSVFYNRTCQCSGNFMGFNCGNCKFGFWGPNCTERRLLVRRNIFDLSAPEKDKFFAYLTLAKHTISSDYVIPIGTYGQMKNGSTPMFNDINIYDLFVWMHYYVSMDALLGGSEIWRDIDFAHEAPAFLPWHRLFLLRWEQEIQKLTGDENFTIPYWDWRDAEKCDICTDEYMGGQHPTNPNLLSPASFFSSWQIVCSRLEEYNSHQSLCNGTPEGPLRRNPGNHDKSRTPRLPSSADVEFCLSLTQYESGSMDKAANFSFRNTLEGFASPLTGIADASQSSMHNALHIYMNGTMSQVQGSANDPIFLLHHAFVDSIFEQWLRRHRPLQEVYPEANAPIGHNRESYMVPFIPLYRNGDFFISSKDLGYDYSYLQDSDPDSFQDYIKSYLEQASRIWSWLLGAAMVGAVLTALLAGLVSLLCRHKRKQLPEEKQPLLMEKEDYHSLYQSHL
For `COc1cc(-c2ccccc2O[C@@H]2O[C@H](CO)[C@@H](O)[C@H](O)[C@H]2O)cc(OC)c1O` [FORTUNEANOSIDE C], the IC50 was 450 µM.
In the case of `COc1ccccc1-c1cc(OC)c(O)c(OC)c1O[C@@H]1O[C@H](CO)[C@@H](O)[C@H](O)[C@H]1O` [FORTUNEANOSIDE B], the IC50 is reported as 2210 µM.
`COc1cc(-c2cccc(O[C@@H]3O[C@H](CO)[C@@H](O)[C@H](O)[C@H]3O)c2O)cc(OC)c1O` [FORTUNEANOSIDE D] gave an IC50 of 70 µM.
In the case of `COc1cc(-c2ccc(O[C@@H]3O[C@H](CO)[C@@H](O)[C@H](O)[C@H]3O)c(O)c2)cc(OC)c1O` [FORTUNEANOSIDE E], the IC50 is reported as 140 µM.
